For eight molecules, IC50 results are on record in US20220135567A1, “TYK2 PSEUDOKINASE LIGANDS” (Ventyx Biosciences, Inc., priority 2019, published 2022).

The assay relates to IFN-a/Jak1Tyk2. Description: Co-stimulation assay in lysed whole blood: IFNa (JAK1/TYK2) stimulated STAT1 phosphorylation. Format: cell-based. As to conditions: lysed human whole blood, IFNa 100 ng/mL + GM-CSF 10 ng/mL, pSTAT1 by flow cytometry. An outline of the steps:
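Red-cell-lysed human whole blood, pretreated with compound for 1 h at 37°C, was stimulated 20 min at 37°C with IFNa (100 ng/mL final) plus GM-CSF (10 ng/mL final). Cells were then fixed/lysed, permeabilised in Perm Buffer III and stained overnight for pSTAT1 (PE) and pSTAT5. Read-out by flow cytometry.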

SMILES strings stand for the structures. A value given as a limit tells only on which side of the number the result lay.

Take `CNc1cc(Nc2cccn(C)c2=O)nc2c(C(=O)NC3CC(OC)C3)cnn12` (centres unmarked) [Compound 88, N-(3-methoxycyclobutyl)-5-((1-methyl-2-oxo-1,2-dihydropyridin-3-yl)amino)-7-(methylamino)pyrazolo[1,5-a]pyrimidine-3-carboxamide]: for the setting “20 min”, the IC50 is more than 3 µM.
Same read-out and setting: as for `CNc1cc(Nc2cccn(-c3ccccn3)c2=O)nc2c(C(=O)N[C@H]3C[C@H]3F)cnn12` [Compound 115, N-((1S,2R)-2-fluorocyclopropyl)-7-(methylamino)-5-((2-oxo-2H-[1,2′-bipyridin]-3-yl)amino)pyrazolo[1,5-a]pyrimidine-3-carboxamide], the figure is less than 0.1 µM; as for `CCOC(=O)c1cscc1Nc1cc(NC)n2ncc(C(=O)NC3CC3)c2n1` [Compound 37, ethyl 4-((3-(cyclopropylcarbamoyl)-7-(methylamino)pyrazolo[1,5-a]pyrimidin-5-yl)amino)thiophene-3-carboxylate], more than 0.3 µM.
As to `CNc1cc(Nc2cccn(-c3ccc(OC)nn3)c2=O)nc2c(C(=O)NC3CC3)cnn12` [Compound 40, N-cyclopropyl-5-((1-(6-methoxypyridazin-3-yl)-2-oxo-1,2-dihydropyridin-3-yl)amino)-7-(methylamino)pyrazolo[1,5-a]pyrimidine-3-carboxamide], for the setting “20 min”, the IC50 was less than 0.1 µM.
Regarding `CNc1cc(Nc2cscc2C(=O)O)nc2c(C(=O)NC3CC3)cnn12` [Compound 36, 4-((3-(cyclopropylcarbamoyl)-7-(methylamino)pyrazolo[1,5-a]pyrimidin-5-yl)amino)thiophene-3-carboxylic acid], where the note is “20 min”, the IC50 is more than 0.3 µM.
Consider `CNC(=O)c1cnn2c(NC)cc(Nc3cc(C)cc(C)c3)nc12` [Compound 9, 5-((3,5-dimethylphenyl)amino)-N-methyl-7-(methylamino)pyrazole [1,5-a]pyrimidine-3-carboxamide], for which the half-maximal inhibitory concentration (IC50) (20 minutes) lay in the range of 1 to 10 µM.
`CNc1cc(Nc2cccn(-c3ccc(OC)nn3)c2=O)nc2c(C(=O)NCC(C)(O)CO)cnn12` (centres unmarked) [Compound 105, N-(2,3-dihydroxy-2-methylpropyl)-5-((1-(6-methoxypyridazin-3-yl)-2-oxo-1,2-dihydropyridin-3-yl)amino)-7-(methylamino)pyrazolo[1,5-a]pyrimidine-3-carboxamide]: the IC50 (20 min) was more than 3 µM.
The same measure, in the same setting: the figure for `CNc1cc(Nc2cccc3c2OCCO3)nc2c(C(=O)NC3(C#N)CC3)cnn12` [Compound 95, N-(1-cyanocyclopropyl)-5-((2,3-dihydrobenzo[b][1,4]dioxin-5-yl)amino)-7-(methylamino)pyrazolo[1,5-a]pyrimidine-3-carboxamide] is less than 0.1 µM.

A word on the IC50: it is the concentration that inhibits the measured activity by half.
